Like-named read-outs stand apart in the source and are kept apart here. Some results are limits rather than exact numbers.

Experiment [1] relates to IL-6 secretion in THP-1 cells. The experiment is described as follows: Cell-based IL-6 quantification assay (ELISA, Mesoscale) in LPS-treated THP-1 cells. The note with it: Homo sapiens, LPS 4 μg/mL, 16 h, ELISA value/CellTiter-Glo ratio. The protocol:
C. Cell-Based IL-6 Quantification Assay (ELISA, Mesoscale Assay):
100,000 THP-1 cells were seeded in RPMI1640-10% FBS in 96-well plates. LPS (E. Coli Invitrogen) in RPMI−10% FBS at a final concentration of 4 μg/mL was added to the wells and the cells are then incubated in the presence of various concentrations of compounds for 16 h. Plates are spun ([…], 5 min), an aliquot of 25 uL supernatant is transferred in to an ELISA plate (Mesoscale technology, MSD) and the detection of IL-6 is performed using manufacturer's instructions. The amount of cells in each well is assessed using CellTiter-Glo® (Promega). The ratio of ELISA value/CellTiter-Glo value is used to calculate the percent of inhibition of IL-6 secretion.

A further experiment addresses T1, BRD4 (BD1) (Homo sapiens, UniProt O60885).
T1 construct: His; made in house
The experiment is described as follows: BRD4 AlphaLisa binding assay. On the procedure:
A. IC50 Measurements for Inhibitors Using BRD4 AlphaLisa Binding Assay.
Specifically, in a 384 well ProxiPlate BRD4 (BD1) (30 nM final) was combined with peptide (200 nM final) in 40 mM HEPES (pH 7.0), 40 mM NaCl, 1 mM DTT, 0.01% (w/v) BSA, and 0.008% (w/v) Brij-35 either in the presence of DMSO (final 1.2% DMSO) or compound dilution series in DMSO. After 20 minute incubation at room temperature Alpha streptavidin donor beads and AlphaLisa anti-Flag acceptor beads were added to a final concentration of 10 ug/mL each. After three hours equilibration plates were read on an Envision instrument and IC50s calculated using a four parameter non-linear curve fit.

Experiment [2] concerns MYC mRNA in MV4:11 (AML) cells. The experiment in a line: cMyc RNA quantification assay (QuantiGene) in MV4:11 cells. The format is cell-based. The note with it: Homo sapiens, 4 h, QuantiGene 2.0. On the procedure:
B. cMyc RNA Quantification Assay (QuantiGene® Assay):
MV4:11 (AML) cells were seeded in a 96-well plate and incubated in the presence of various concentrations of compounds for 4 h. Relative mRNA levels were quantitated by using QuantiGene 2.0 assay (Affymetrix) according to the manufacturer's recommendation. Signals were detected by using an Envision plate reader (Perkin-Elmer). Biological duplicates were averaged and normalized to vehicle (DMSO) control to calculate percent MYC mRNA levels.

[3] abbreviates: BRD4 (BD1) 30 nM, biotinylated H4-tetraacetyl peptide 200 nM, read-out: BRD4 AlphaLisa.

Take `Cc1nnc2n1-c1ccc(-c3ccc(N)nc3)cc1N(c1ccc(C(N)=O)cc1)CC2C` (stereo in doubt) [Compound 69, (R)-4-(8-(6-aminopyridin-3-yl)-1,4-dimethyl-4H-benzo[b][1,2,4]triazolo[4,3-d][1,4]diazepin-6(5H)-yl)benzamide]: the IC50 in experiment [1] lay in the range of 1 to 10 µM; on BRD4 (BD1) (setting [3]) it was 0.1 to 1 µM; in experiment [2], 1 to 10 µM.

Take `Cc1nnc2n1-c1ccc(-c3ccc(N)nc3)cc1N(c1ccc(C(N)=O)cc1)CC2C` (stereo in doubt) [Compound 70, (S)-4-(8-(6-aminopyridin-3-yl)-1,4-dimethyl-4H-benzo[b][1,2,4]triazolo[4,3-d][1,4]diazepin-6(5H)-yl)benzamide]: the IC50 in experiment [1] was 1 to 10 µM; at BRD4 (BD1) (setting [3]), under 0.1 µM; in experiment [2], 1 to 10 µM.

For the molecule `Cc1nnc2n1-c1ccccc1N(c1ccc(Cl)cc1)CC2C` (stereo not drawn) [Compound 1, 6-(4-chlorophenyl)-1,4-dimethyl-5,6-dihydro-4H-benzo[b][1,2,4]triazolo[4,3-d][1,4]diazepine], the IC50 (in experiment [1]; at BRD4 (BD1); in experiment [2]) was 0.1 to 1 µM each time.

For the molecule `Cc1nnc2n1-c1ccccc1N(c1ccc(Cl)cc1)CC2` [Compound 2, 6-(4-chlorophenyl)-1-methyl-5,6-dihydro-4H-benzo[b][1,2,4]triazolo[4,3-d][1,4]diazepine], the IC50 in experiment [1] lay within 1 to 10 µM; on BRD4 (BD1) it was 0.1 to 1 µM; in experiment [2] it was 1 to 10 µM.

Regarding `Cc1nnc2n1-c1ccccc1N(c1ccc(Cl)cc1)CC2(C)C` [Compound 3, 6-(4-chlorophenyl)-1,4,4-trimethyl-5,6-dihydro-4H-benzo[b][1,2,4]triazolo[4,3-d][1,4]diazepine], the IC50 lay within 0.1 to 1 µM in experiment [1], 0.1 to 1 µM at BRD4 (BD1) and 1 to 10 µM in experiment [2].

For the molecule `Cc1nnc2n1-c1ccc(-c3ccc(N)nc3)cc1N(c1ccc(Cl)cc1)CC2` [Compound 15, 5-(6-(4-chlorophenyl)-1-methyl-5,6-dihydro-4H-benzo[b][1,2,4]triazolo[4,3-d][1,4]diazepin-8-yl)pyridin-2-amine], the IC50 was under 0.1 µM in experiment [1], under 0.1 µM at BRD4 (BD1) (setting [3]) and 0.1 to 1 µM in experiment [2].

Take `Cc1nnc2n1-c1ccc(-c3ccc(N)nc3)cc1N(c1ccc(C#N)cc1)CC2` [Compound 16, 4H-[1,2,4]triazolo[4,3-a][1,5]benzodiazepine, 5,6-dihydro-1-methyl-8-(6-aminopyridin-3-yl)-6-(4-cyano-phenyl)]: the IC50 (in experiment [1]; on BRD4 (BD1) (setting [3]); in experiment [2]) was 0.1 to 1 µM throughout.

Turning to `Cc1nnc2n1-c1c(F)cccc1N(c1ccc(Cl)cc1)CC2` [Compound 17, 6-(4-chlorophenyl)−10-fluoro-1-methyl-5,6-dihydro-4H-benzo[b][1,2,4]triazolo[4,3-d][1,4]diazepine], the IC50 in experiment [1] is over 1 µM; on BRD4 (BD1) (setting [3]), 1 to 10 µM; in experiment [2], 1 to 10 µM.

With `Cc1nnc2n1-c1ccccc1N(c1ccc(Cl)cc1)C(C)C2` (stereo not drawn) [Compound 18, 6-(4-chlorophenyl)-1,5-dimethyl-5,6-dihydro-4H-benzo[b][1,2,4]triazolo[4,3-d][1,4]diazepine], the IC50 in experiment [1] is over 1 µM; at BRD4 (BD1) (setting [3]) it was 0.1 to 1 µM; in experiment [2], 1 to 10 µM.

`Cc1nnc2n1-c1ccc(-c3ccc(N)nc3)cc1N(c1ccc(C(F)(F)F)cc1)CC2` [Compound 19, 4H-[1,2,4]triazolo[4,3-a][1,5]benzodiazepine,5,6-dihydro-1-methyl-8-(6-amino-pyridin-3-yl)-6-(4-trifluoromethyl-phenyl)]: the IC50 in experiment [1] is under 0.1 µM; on BRD4 (BD1) (setting [3]), under 0.1 µM; in experiment [2] it was 0.1 to 1 µM.

For the molecule `Cc1nnc2n1-c1ccc(-c3ccc(C(=O)O)cc3)cc1N(c1ccc(Cl)cc1)CC2` [Compound 20, 4H-[1,2,4]triazolo[4,3-a][1,5]benzodiazepine,5,6-dihydro-1-methyl-8-(4-carboxy-phenyl)-6-(4-chloro-phenyl)], the values for the IC50 (in experiment [1]; on BRD4 (BD1) (setting [3]); in experiment [2]) were 0.1 to 1 µM, under 0.1 µM and 0.1 to 1 µM, respectively.

With `Cc1nnc2n1-c1ccc(-c3ncccn3)cc1N(c1ccc(Cl)cc1)CC2` [Compound 21, 6-(4-chlorophenyl)-1-methyl-8-(pyrimidin-2-yl)-5,6-dihydro-4H-benzo[b][1,2,4]triazolo[4,3-d][1,4]diazepine], the results for the IC50 (in experiment [1]; on BRD4 (BD1) (setting [3]); in experiment [2]) were 0.1 to 1 µM, 0.1 to 1 µM and 1 to 10 µM, respectively.

As to `Cc1nnc2n1-c1ccccc1N(c1ccc(Cl)cc1)C(C)(C)C2` [Compound 22, 6-(4-chlorophenyl)-1,5,5-trimethyl-5,6-dihydro-4H-benzo[b][1,2,4]triazolo[4,3-d][1,4]diazepine], the IC50 in experiment [1] was 1 to 10 µM; on BRD4 (BD1) (setting [3]) it was over 10 µM; in experiment [2], 0.1 to 1 µM.

For the molecule `Cc1nnc2n1-c1ccc(-c3ccc(N)nc3)cc1N(c1ccc(Cl)cc1)CC2C` (stereo not drawn) [Compound 23, 4H-[1,2,4]triazolo[4,3-a][1,5]benzodiazepine,5,6-dihydro-1,4-dimethyl-8-(6-aminopyridin-3-yl)-6-(4-chloro-phenyl)], the IC50 (in experiment [1]; on BRD4 (BD1) (setting [3]); in experiment [2]) was under 0.1 µM each time.

In the case of `Cc1nnc2n1-c1ccc(-c3ncc(C(=O)O)cn3)cc1N(c1ccc(Cl)cc1)CC2` [Compound 24, 4H-[1,2,4]triazolo[4,3-a][1,5]benzodiazepine, 5,6-dihydro-1-methyl-8-(5-(carboxy)pyrimidin-2-yl)-6-(4-chloro-phenyl)], the values for the IC50 (in experiment [1]; at BRD4 (BD1) (setting [3]); in experiment [2]) were over 1 µM, under 0.1 µM and 1 to 10 µM, respectively.

Consider `Cc1nnc2n1-c1ccc(-c3cnc(N)nc3)cc1N(c1ccc(Cl)cc1)CC2C` (stereo not drawn) [Compound 25], for which the IC50 in experiment [1] is 0.1 to 1 µM; at BRD4 (BD1) (setting [3]), under 0.1 µM; in experiment [2], under 0.1 µM.

As for `Cc1nnc2n1-c1ccc(-c3ccc(N)nc3)cc1N(c1ccc(Cl)cc1)C[C@H]2C` [Compound 26, (R)-4H-[1,2,4]triazolo[4,3-a][1,5]benzodiazepine, 5,6-dihydro-1,4-dimethyl-8-(6-aminopyridin-3-yl)-6-(4-chloro-phenyl)], the IC50 (in experiment [1]; at BRD4 (BD1) (setting [3]); in experiment [2]) was under 0.1 µM in each case.

Consider `Cc1nnc2n1-c1ccc(-c3ccc(N)nc3)cc1N(c1cnn(C)c1)C[C@H]2C` [Compound 76, (R)-5-(1,4-dimethyl-6-(1-methyl-1H-pyrazol-4-yl)-5,6-dihydro-4H-benzo[b][1,2,4]triazolo[4,3-d][1,4]diazepin-8-yl)pyridin-2-amine], for which the IC50 in experiment [1] and in experiment [2] was 0.1 to 1 µM throughout.

With `Cc1nnc2n1-c1ccc(-c3ccc(=O)[nH]c3)cc1N(c1ccc(S(C)(=O)=O)cc1)C[C@H]2C` [Compound 78, (R)-5-(1,4-dimethyl-6-(4-(methylsulfonyl)phenyl)-5,6-dihydro-4H-benzo[b][1,2,4]triazolo[4,3-d][1,4]diazepin-8-yl)pyridin-2(1H)-one], the IC50 on BRD4 (BD1) (setting [3]) was in the range of 0.1 to 1 µM; in experiment [2], 1 to 10 µM.

With `Cc1nnc2n1-c1ccc(-c3cnc(N)cn3)cc1N(c1ccc(S(C)(=O)=O)cc1)C[C@H]2C` [Compound 79, (R)-5-(1,4-dimethyl-6-(4-(methylsulfonyl)phenyl)-5,6-dihydro-4H-benzo[b][1,2,4]triazolo[4,3-d][1,4]diazepin-8-yl)pyrazin-2-amine], the IC50 on BRD4 (BD1) (setting [3]) was under 0.1 µM; in experiment [2], 0.1 to 1 µM.

Values taken from US9422292B2, “Bromodomain inhibitors and uses thereof” (Constellation Pharmaceuticals, Inc., priority 2011, dated 2016).
